The values below come from EP4289427A1, “DIHYDRO[1,8]NAPHTHYRIDIN-7-ONE AND PYRIDO[3,2-B][1,4]OXAZIN-3-ONE FOR USE IN TREATING CANCER, AND METASTASES IN PARTICULAR” (Anagenesis Biotechnologies, priority 2022, dated 2023).

In one data set the test system is HUVECs. Nature of the data set: Tube formation assay (anti-angiogenic activity). It counts as cell-based, human. Conditions: for IC50: Homo sapiens, HUVEC. An excerpt: Angiogenesis is a phenomenon that includes different processes, such as endothelial cell proliferation, migration and differentiation that lead to the formation of new blood vessels. Tube formation assay is a standard in vitro test to assess angiogenesis: briefly, human Umbilical Vein Endothelial cells (hereafter "HUVECs") cultivated on a gelled basement matrix spontaneously proliferate, migrate and differentiate to form tube-like structures, that appear elongated and that connect to each other to form a network.
HUVECs were cultivated in Endothelial Cell Growth Medium (cat.no. C-22010 from Promocell) supplemented with 1% PenStrep (hereafter "HUVEC medium"). On day 0, HUVECs were harvested and transferred into a 384-well plate precoated with 10 µl/well of Cultrex UltiMatrix Reduced Growth factor basement membrane (cat.no. BME001-10 from BioTechne), according to the manufacturer's instructions, at a density of 5000 cells/well in HUVEC medium. Compounds to be tested were then added onto the cells and incubated for 16 to 18 hours at 37°C. After this incubation period, the cells were stained with calcein-AM (cat.no. 10462052 from Fisher Scientific) and pictures were acquired using a confocal fluorescent microscope (IXM from Molecular Devices). Tube formation was measured with MetaXpress® Software.

For the next data set, the system named is MDA-MB-231 cells. Nature of the data set: Cytotoxicity assay (CellTiter-Glo 2.0) on MDA-MB-231 cells. Format: cell-based, Human. Conditions: incubation 3 days; for IC50: Homo sapiens, 72 h. The procedure:
(§1) Cytotoxicity assays consist in treating cells with compounds and assessing remaining viability after a defined incubation time, depending on the cell line. CellTiter-Glo® 2.0 reagent allows viability measurement by quantification of ATP present, which is an indicator of metabolically active cells.
(§2) The cancer cell lines were cultivated in their respective growth medium (see tables 6a and 6b). On day 0 of the cytotoxicity assay, the cells were harvested and seeded into a 384-well plate at a defined density in their respective growth medium (see tables 6a and 6b). Compounds to be tested were then added onto the cells and incubated for a defined duration (see tables 6a and 6b). Following incubation, CellTiter-Glo® 2.0 reagent (cat.no. G9241 from Promega) was added into the wells (vol/vol, according to the manufacturer's recommendations), plates were gently shaken and incubated for 10 minutes in the dark at room temperature. Bioluminescence was then measured with a multimode plate reader (Victor Nivo from Perkin Elmer), and cell viability and relative IC50 were determined. Table 6a: Cancer cell characteristics, culture and cytotoxic assay conditions

Another data set has as its system RD cells. In words: Cytotoxicity assay (CellTiter-Glo 2.0) on RD cells. Conditions: for IC50: Homo sapiens. Format: cell-based, Human. How it is done: as §1, §2
On the technique in general: ATP-based viability assays read luminescence as a measure of living cells.

A further data set deals with 4T1 cells. In words: Cytotoxicity assay (CellTiter-Glo 2.0) on 4T1 cells. It counts as cell-based, Mouse. Conditions: incubation 2 days; for IC50: Mus musculus, 48 h. How it is done:
as §1, §2

For a further data set, the system named is EoL-1 cells. In words: Cytotoxicity assay (CellTiter-Glo 2.0) on EoL-1 cells. Format: cell-based, Human. Conditions: incubation 1 day; for IC50: Homo sapiens, EOL1, 24 h. How it is done:
as §1, §2

The IC50 is the midpoint of a concentration-inhibition curve. Take `CSc1cc(Oc2ccnc3c2CCC(=O)N3)ccc1NC(=O)Nc1cc(C(C)(C)C)nn1-c1ccc(CN2CCOCC2)cc1` [Compound 042, 1-[5-tert-butyl-2-[4-(morpholinomethyl)phenyl]pyrazol-3-yl]-3-[2-methylsulfanyl-4-[(7-oxo-6,8-dihydro-5H-1,8-naphthyridin-4-yl)oxy]phenyl]urea]: the IC50 with HUVECs (incubation 16 to 18 hours) is under 100 nM; in the data set on MDA-MB-231 cells, 1000 to 5000 nM; in the data set on RD cells (48 h, 2 day-treatment) it was 1000 to 5000 nM; in the data set with RD cells (96 h, 4 day-treatment) it was 1000 to 5000 nM; in the data set on 4T1 cells, under 1000 nM; in the data set with EoL-1 cells, 1 to 10 nM. The Angiogenesis inhibition result in the data set on HUVECs (incubation 16 to 18 hours) was “+++ (angiogenesis inhibition ≥ 80%)”. For the same compound, the Cytotoxicity entry with MDA-MB-231 cells is on record as “++ (50% ≤ cytotoxicity < 85%)”; in the data set on RD cells (2 day-treatment) it was “++ (50% ≤ cytotoxicity < 85%)”; with RD cells (4 day-treatment) it was “++ (50% ≤ cytotoxicity < 85%)”; in the data set on 4T1 cells, “+++ (cytotoxicity ≥ 85%)”; in the data set on EoL-1 cells, “+++ (cytotoxicity ≥ 85%)”.
For `CC(C)(C)c1cc(NC(=O)Nc2ccc(Oc3ccnc4c3CCC(=O)N4)cc2C(F)(F)F)n(-c2ccc(F)cc2F)n1` [Compound 029, 1-[5-tert-butyl-2-(2,4-difluorophenyl)pyrazol-3-yl]-3-[4-[(7-oxo-6,8-dihydro-5H-1,8-naphthyridin-4-yl)oxy]-2-(trifluoromethyl)phenyl]urea], the 50% inhibitory concentration (IC50) fell in the range of 100 to 500 nM in the data set on HUVECs (incubation 16 to 18 hours), 5000 to 10000 nM with MDA-MB-231 cells, 1000 to 5000 nM with 4T1 cells and 10 to 100 nM with EoL-1 cells. The Angiogenesis inhibition result in the data set on HUVECs (incubation 16 to 18 hours) was “++ (80% > angiogenesis inhibition ≥ 50%)”. Further, the Cytotoxicity result with MDA-MB-231 cells was “+ (20 % ≤ cytotoxicity < 50%)”; in the data set on 4T1 cells, “++ (50% ≤ cytotoxicity < 85%)”; with EoL-1 cells, “+++ (cytotoxicity ≥ 85%)”.
For `CSc1cc(Oc2ccnc3c2OCC(=O)N3)ccc1NC(=O)Nc1cc(C(C)(C)C)nn1-c1cccc(CN(C)C)c1` [Compound 041, 1-[5-tert-butyl-2-[3-(dimethylaminomethyl)phenyl]pyrazol-3-yl]-3-[2-methylsulfanyl-4-[(3-oxo-4H-pyrido[3,2-b][1,4]oxazin-8-yl)oxy]phenyl]urea], the IC50 in the data set on HUVECs (incubation 16 to 18 hours) is under 100 nM; with MDA-MB-231 cells, 1000 to 5000 nM; in the data set on RD cells (48 h, 2 day-treatment), 1000 to 5000 nM; with RD cells (96 h, 4 day-treatment) it was 1000 to 5000 nM; in the data set with 4T1 cells, under 1000 nM; in the data set with EoL-1 cells, 1 to 10 nM. For the same compound, the Angiogenesis inhibition entry with HUVECs (incubation 16 to 18 hours) is reported as “+++ (angiogenesis inhibition ≥ 80%)”. Moreover, the Cytotoxicity entry in the data set with MDA-MB-231 cells, in the data set on RD cells (2 day-treatment), in the data set with RD cells (4 day-treatment), in the data set with 4T1 cells and in the data set on EoL-1 cells was “+++ (cytotoxicity ≥ 85%)” each time.
As for `CSc1cc(Oc2ccnc3c2CCC(=O)N3)ccc1NC(=O)Nc1cc(C(C)(C)C)nn1-c1cccc(CN(C)C)c1` [Compound 050, 1-[5-tert-butyl-2-[3-(dimethylaminomethyl)phenyl]pyrazol-3-yl]-3-[2-methylsulfanyl-4-[(7-oxo-6,8-dihydro-5H-1,8-naphthyridin-4-yl)oxy]phenyl]urea], the IC50 with HUVECs (incubation 16 to 18 hours) was under 100 nM; in the data set on MDA-MB-231 cells it was 1000 to 5000 nM; with RD cells (48 h, 2 day-treatment), 1000 to 5000 nM; in the data set with RD cells (96 h, 4 day-treatment) it was 1000 to 5000 nM; in the data set with 4T1 cells it was under 1000 nM; in the data set on EoL-1 cells it was 1 to 10 nM. Besides, the Angiogenesis inhibition entry in the data set on HUVECs (incubation 16 to 18 hours) is on record as “+++ (angiogenesis inhibition ≥ 80%)”. Also, the Cytotoxicity entry in the data set on MDA-MB-231 cells, with RD cells (2 day-treatment), with RD cells (4 day-treatment), with 4T1 cells and with EoL-1 cells was “+++ (cytotoxicity ≥ 85%)” throughout.
Take `CSc1cc(Oc2ccnc3c2OCC(=O)N3)ccc1NC(=O)Nc1ncc(C(C)(C)C)o1` [Compound 025]: in the data set on EoL-1 cells, the half-inhibitory concentration (IC50) was under 1 nM and the Cytotoxicity entry is on record as “+++ (cytotoxicity ≥ 85%)”.
As for `CSc1cc(Oc2ccnc3c2CCC(=O)N3)ccc1NC(=O)Nc1cc(C(C)(C)C)nn1-c1cccc(Cl)c1` [Compound 003, 1-(3-(tert-butyl)-1-(3-chlorophenyl)-1H-pyrazol-5-yl)-3-(2-(methylthio)-4-((7-oxo-5,6,7,8-tetrahydro-1,8-naphthyridin-4-yl)oxy)phenyl)urea], the IC50 with MDA-MB-231 cells was 1000 to 5000 nM; in the data set on RD cells (48 h, 2 day-treatment) it was 1000 to 5000 nM; in the data set with RD cells (96 h, 4 day-treatment), 5000 to 10000 nM; in the data set with 4T1 cells, under 1000 nM. Further, the Cytotoxicity result with MDA-MB-231 cells is recorded as “++ (50% ≤ cytotoxicity < 85%)”; with RD cells (2 day-treatment) it was “+ (20 % ≤ cytotoxicity < 50%)”; in the data set with RD cells (4 day-treatment), “+ (20 % ≤ cytotoxicity < 50%)”; in the data set on 4T1 cells, “+++ (cytotoxicity ≥ 85%)”.
On to `COc1cc2nccc(Oc3ccc(NC(=O)NC4CC4)c(Cl)c3)c2cc1C(N)=O` [Lenvatinib, reference compound], for which the half-inhibitory concentration (IC50) was under 100 nM in the data set with HUVECs (commercial kinase inhibitors), at least 10000 nM in the data set with MDA-MB-231 cells (commercial kinase inhibitors), 1000 to 5000 nM in the data set with 4T1 cells (commercial kinase inhibitors) and 1 to 10 nM in the data set with EoL-1 cells (commercial kinase inhibitors). Besides, in the data set on HUVECs (commercial kinase inhibitors), the Angiogenesis inhibition result is on record as “++ (80% > angiogenesis inhibition ≥ 50%)”. The results for the Cytotoxicity entry in the data set on MDA-MB-231 cells (commercial kinase inhibitors), in the data set on 4T1 cells (commercial kinase inhibitors) and in the data set with EoL-1 cells (commercial kinase inhibitors) were “- (cytotoxicity < 20 %)”, “+ (20 % ≤ cytotoxicity < 50 %)” and “+++ (cytotoxicity ≥ 85%)”, respectively.
Turning to `CC(C)(C)c1cc(NC(=O)Nc2ccc(Oc3ccnc4c3OCC(=O)N4)cc2C(F)(F)F)n(-c2ccc(CCN3CCOCC3)cc2)n1` [Compound 053, 1-[5-tert-butyl-2-[4-(2-morpholinoethyl)phenyl]pyrazol-3-yl]-3-[4-[(3-oxo-4H-pyrido[3,2-b][1,4]oxazin-8-yl)oxy]-2-(trifluoromethyl)phenyl]urea], the concentration for half-maximal inhibition (IC50) in the data set with HUVECs (incubation 16 to 18 hours) is under 100 nM; with MDA-MB-231 cells it was 1000 to 5000 nM; in the data set with 4T1 cells, under 1000 nM; with EoL-1 cells it was 10 to 100 nM. Besides, the Angiogenesis inhibition entry in the data set with HUVECs (incubation 16 to 18 hours) is listed as “+++ (angiogenesis inhibition ≥ 80%)”. The figures for the Cytotoxicity entry with MDA-MB-231 cells, in the data set on 4T1 cells and in the data set with EoL-1 cells were “++ (50% ≤ cytotoxicity < 85%)”, “+++ (cytotoxicity ≥ 85%)” and “+++ (cytotoxicity ≥ 85%)”, respectively.
For `Cc1ccc(F)c(NC(=O)Nc2ccc(-c3cccc4[nH]nc(N)c34)cc2)c1` [Linifanib, reference compound], in the data set on HUVECs (commercial kinase inhibitors), the concentration for half-maximal inhibition (IC50) is under 100 nM and the Angiogenesis inhibition result was “+ (50% > angiogenesis inhibition ≥ 20%)”.
For the compound `COc1cc2nccc(Oc3ccc(NC(=O)Nc4cc(C)on4)c(Cl)c3)c2cc1OC` [Tivozanib, reference compound], the half-maximal inhibitory concentration (IC50) in the data set with HUVECs (commercial kinase inhibitors) was 100 to 500 nM; in the data set with MDA-MB-231 cells (commercial kinase inhibitors) it was 5000 to 10000 nM; in the data set on RD cells (48 h, 2 day-treatment, commercial kinase inhibitors), at least 10000 nM; in the data set with RD cells (96 h, 4 day-treatment, commercial kinase inhibitors), at least 10000 nM; with 4T1 cells (commercial kinase inhibitors), 5000 to 10000 nM. In addition, the Angiogenesis inhibition result in the data set on HUVECs (commercial kinase inhibitors) is reported as “+ (50% > angiogenesis inhibition ≥ 20%)”. Besides, the Cytotoxicity result with MDA-MB-231 cells (commercial kinase inhibitors) is reported as “++ (50 % ≤ cytotoxicity < 85 %)”; with RD cells (2 day-treatment, commercial kinase inhibitors), “- (cytotoxicity < 20 %)”; in the data set on RD cells (4 day-treatment, commercial kinase inhibitors), “- (cytotoxicity < 20 %)”; in the data set with 4T1 cells (commercial kinase inhibitors) it was “+++ (cytotoxicity ≥ 85 %)”.
For the compound `CC(C)(C)c1coc(NC(=O)Nc2ccc(Oc3ccnc4c3CCC(=O)N4)cc2C(F)(F)F)n1` [Compound 036], the IC50 was 5000 to 10000 nM in the data set with MDA-MB-231 cells; 1000 to 5000 nM with RD cells (48 h, 2 day-treatment); 1000 to 5000 nM with RD cells (96 h, 4 day-treatment); at least 10000 nM with 4T1 cells; at least 100 nM with EoL-1 cells. For the same compound, the Cytotoxicity result in the data set on MDA-MB-231 cells is given as “+ (20 % ≤ cytotoxicity < 50%)”; with RD cells (2 day-treatment) it was “+ (20 % ≤ cytotoxicity < 50%)”; with RD cells (4 day-treatment), “- (cytotoxicity < 20%)”; with 4T1 cells it was “- (cytotoxicity < 20%)”; with EoL-1 cells, “+ (20 % ≤ cytotoxicity < 50%)”.
